Structures are written as SMILES. Converted amounts (≈) assume the structure as drawn. Where two headings read alike, the source gives them in different places.

These results are taken from US20250089709A1, “CALCIUM PHOSPHATE NANOPARTICLES LOADED WITH JASMONATE TO INDUCE EFFICIENT PLANT DEFENCE RESPONSES” (UNIVERSIDAD DE GRANADA, priority 2021, published 2025).

Data set [1] deals with B16-F10 cell line. Briefly: In vitro cytotoxicity assay (MTS). Type of data set: cell-based. The settings on record: Mus musculus, 48 h, B16-F10 cells, 2 days incubation, read-out: IC50 (half inhibitory concentration, cell viability). Here is the method: Mouse skin melanoma (B16-F10, ATCC CRL-6322) cell line was purchased from the Cell Bank of CIC-UGR. B16-F10 cells were expanded in Eagle's minimum essential medium (EMEM) with Earle's balanced salt solution (EBSS) supplemented with 2 mM glutamine, and 10% foetal bovine serum (FBS), 1% nonessential amino acids (NEAA) and 1 mM sodium pyruvate (NaP) at 37° C. in a humidified atmosphere of 5% CO2.
Cells were detached from culture flasks by trypsinization, centrifuged and resuspended. Cell number and viability were assessed with the trypan-blue dye exclusion test. Then, 1.0·10^4 cells/well were seeded in a 96 flat transparent well and incubated at 37° C. in a humidified atmosphere of 5% CO2. […] After 2 days incubation, cell viability was evaluated by MTS assay using CellTiter 96® AQueous One Solution Reagent (Promega, Madison, WI) according to the manufacturer's instructions. Briefly, 20 μL of AQueous One Solution Reagent was added to each well and after 2 h of incubation, the absorbance at 490 nm was measured with a spectrophotometer (Infinite® 200 PRO NanoQuant, CIC-UGR). […] Each experiment was done in triplicate.
(§1) Statistical comparisons were analysed with GraphPad Prism software (version 6.0) using one-way or two-way ANOVA and Bonferroni's post hoc test. […] The half inhibitory concentrations (IC50) were calculated by the Graph Pad Prism, using the dose-response sigmoidal curves, p<0.05.

Data set [2] is described as follows: In vitro nano-MeJ protection assays (drops at 50° C., UV-Vis and Raman). Type of data set: physicochemical. The settings on record: dried drops after 24 hours at 50° C. On the procedure: Both of them were kept at 50° C. during 24 h. At scheduled times, the drops were observed using an iScope (Euromex) microscope, in bright field mode and under 40× objective. After 24 hours, the remained samples were analysed by Raman Spectroscopy (JASCO NRS-5100, Jasco International Co. Ltd, Japan) from CIC-UGR. The excitation line was provided by a diode laser emitting at a wavelength of 785 nm. The detector used is a Peltier cooled charge-couple device (CCD, 1024×256 pixels). Before the measurement, the Raman shift of the spectrometer was calibrated using the 520.7 cm-1 peak of crystalline silicon as standard. Each spectrum corresponds to the average of 3 acquisitions of 100 s each. The spectra were linearly base-line corrected for clarity. The same experiment was carried out by depositing on a crystallizer 30 drops of 100 μL of each sample to determine the ratio of protection. […] Then, the sample was centrifuged (12000 rpm, 10 minutes) to remove the nanoparticles before UV-Vis measurements. The ratio of protection (%) was calculated as MeJfinal/MeJinicial×100. Each test was performed in triplicates.

Data set [3] relates to Monastrell (Vitis vinifera L.) grapevines. Briefly: In vivo field experiments on vineyards, stilbene analysis in wines. The settings on record: for total stilbene concentration in wines: two applications. On the procedure: The experiments were conducted in a randomized block design, in which five treatments were applied to three replicates, using 10 vines for each replication. Monastrell (Vitis vinifera L.) grapevines from experimental vineyards located in Cehegin (Murcia, Spain): were sprayed with five treatments, in order to evaluate nano-MeJ efficiency in the field. […] 200 mL of the product was foliarly applied to each plant at veraison. A second application was performed after 7 days. Then, when grapes reached their optimal maturity they were harvested and transported to the winery for winemaking. Vinifications were made in triplicate in 50-L stainless steel tanks using 50 kg of grapes, which were destemmed, crushed, and sulfited (8 g SO2/100 kg). Total acidity was corrected to 5.5 g/L with tartaric acid, and selected yeasts were added (Uvaferm VRB, Lallemand, 25 g/hL). The fermentative pomace contact period was 10 days during which the cap was punched down twice a day, and the temperature and must density were recorded. At the end of alcoholic fermentation, wines were pressed at 1.5 bars in a 75 L tank membrane press and packed in bag-in-box for further analysis.
The extraction method used was described by Guerrero et al. with some modifications. Briefly, 5 mL of wine were extracted with 5 mL of diethyl ether to which 25 μL of internal standard (Trans-4-Hydroxistilbene, 98%) were added. Samples were homogeneized with an Ultraturrax T-25 (Jankel Adnand Kunkel, IKA-Labortechnick, Germany) and stirred at 9600 rpm for 1 minute. […]
Stilbenes were identified and quantified by HPLC. Samples were analysed using a Waters2695 system equipped with a mass detector (Acquity QDA Waters). […] Stilbenes were quantified at 320 nm using trans-resveratrol, trans-piceid, piceatannol and ε-viniferin as external standards.
as §1

The subject of data set [4] is B16-F10 cell line. The following applies: read-out: MeJ needed to decrease cell viability in a half; same cell line (B16-F10), previous results; cited from earlier work.
For data set [5] the following is noted: cited from earlier work.
The subject of data set [6] is Monastrell grapevine. The following applies: cited from earlier work.

Take `CC/C=C\CC1C(=O)CCC1CC(=O)OC` (racemic) [MeJ, methyl jasmonate]: the results for the IC50 in data set [1] and in data set [4] were 2.2 mM and 2.6 mM, respectively. Further, in data set [2], the “Raman micro-analysis for MeJ signals” value is recorded as “did not show signals assignable to MeJ”. In addition, in data set [3] (foliar application), the “minimum concentration to observe important effects on stilbenes, elicitor conventionally applied” value was 10 mM. Moreover, the “total stilbene concentration in wines” value in data set [3] (foliar spray 5 mM MeJ (MeJ5) at veraison) is listed as “not enough to produce the same enhancement in stilbene concentration”; in data set [3] (foliar spray 10 mM MeJ (MeJ10) at veraison, vs non-treated control), “significant (p<0.001) increase”. Also, in data set [5], the solubility in water was 340 µg/mL (≈ 1520 µM). Moreover, in data set [6] (foliar application of 10 mM, vs non-treated (control) plants), the “total stilbenes in wines” value was “significant increase”. For the same compound, the “foliar concentration needed to promote stilbene production in grapes and wines” value in data set [6] (previous field experiments) is 10 mM.
